# Data: US11103432B2, “Use of 1,3 diglyceride in a topical composition for countering the weakening of the skin barrier” (PIERRE FABRE DERMO-COSMETIQUE, priority 2015, dated 2021)
# Values joined by “and” are separate entries in the source; they are usually repeats but may differ in a detail not shown here. Identical values can stand only once. Like-named read-outs stand apart in the source and are kept apart here.
# Legend:
# [1] = test system: stratum corneum lipids of human skin explants; test: FTIR measurement of human skin explants with or without pre-treatment (position of CH2 symmetric stretching band)
# Method: The skin samples were heated at the rate of 1° C./min, and spectra were collected between 28° C. and 43° C.
# Lipids organization—FTIR measurement: After 30 min of pre-treatment, FTIR measurements were performed to evaluate the molecular organization of the lipid matrix in the stratum corneum. The procedure is based on the study of the position of the CH2 symmetric stretching band, around 2850 cm^−1, depending on the temperature: the skin samples were heated at the rate of 1° C./min and spectra were collected between 28° C. and 43° C. with and without pre-treatment. The position of the CH2 symmetric stretching band is characteristic of the lipid organization and can be related to the barrier function.
# FTIR measurement of skin explant (position of CH2 symmetric stretching band) depending on the temperature;
# FTIR measurements were performed on human skin explants (8 donors) with or without pre-treatment. The skin samples were heated at the rate of 1° C./min, and spectra were collected between 28° C. and 43° C.
# [2] = test system: intercorneocytory lipids of the skin; test: In vivo ATR-FTIR on the inner forearm of healthy volunteers after application of glyceryl 1,3-distearate; set-up: species or system human; conditions: for Δ νCH2, Average / Δ νCH2, single subjects: 40° C., versus control zone
# Method: This study was carried out on health volunteers. The collection of infrared data was done through the intermediary of the ATR-FTIR sensor on the inner face of the forearm on a zone of 10 cm^2.
# A treated zone (with application in vivo of glyceryl 1,3 distearate) and a control zone (without application of glyceryl 1,3 distearate) were determined.
# Two concentrations in glyceryl 1,3-distearate were evaluated (table 2: 0.5 mg/cm^2 and table 3: 0.15 mg/cm^2).
# At T0: the skin is first heated to between 30 and 45° C.
# Then after application in vivo of glyceryl 1,3-distearate on the treated zone, an evaluation is made of the variation in the wave number associated with the vCH2 vibration comparatively to the reference measurement without product applied (control zone) at different times after T0: T 30 minutes, T 1 h30 minutes and T 4 hours.
# Tables 2 and 3: express the variation of the wave number associated with the vCH2 vibration of the aliphatic chains of the intercorneocytory lipids at 40° C. in the presence of glyceryl 1,3-distearate comparatively to the reference measurement without glyceryl 1,3-distearate.
# [3] = test system: Human skin; test: Benzo[a]pyrene skin penetration study, Franz diffusion cell; assay type: in vitro ADME; conditions: for B(a)P at Surface, percentage of the applied dose (Mean) / B(a)P in Receptor fluid, percentage of the applied dose (Mean) / B(a)P in Skin, percentage of the applied dose (Mean) / B(a)P in Stratum corneum, percentage of the applied dose (Mean): n = 8
# Method: (§1) In order to evaluate the impact of 1,3-diglycerides on the organization of stratum corneum lipids and barrier function, in vitro, skin penetration studies of a known pollutant (benzo[a]pyrene (B(a)P) has been developed and performed. On the same donors, FTIR (Fourier transform infrared) measurement and B(a)P skin penetration were assessed to link lipid organization and the “outside-in” skin barrier function modulations, when the skin is heated up to 42° C.
# (§2) Secondly, the impact of pre-treatment with 3% and 15% of glyceryl 1,3 distearate formulated in dimethicone on the modification of the SC (stratum corneum) lipid organization and B(a)P skin penetration provoked by the temperature elevation has been evaluated.
# (§3) • OECD Guidelines for the testing of chemicals: guideline 428, skin absorption: in vitro method (13 Apr. 2004); • SCCS Guidelines, basic criteria for the in-vitro assessment of dermal absorption of cosmetics ingredients, updated March 2006.
# (§4) For the skin delivery study, two temperatures were set. The classical temperature at the surface of the skin for skin delivery studies is 32° C. This temperature corresponds to the temperature at the surface of the skin in vivo. […]
# (§5) The skin penetration study was carried out on 8 donors, the same donor was used for all the conditions:
# (§6) The study was carried out on 8 donors, the same donor was used for all the conditions. B(a)P recovery should be comprised between 85% and 115% of the applied dose, in accordance with OECD 428 and SCCS guidelines.
# (§7) • % of the applied dose at surface, stratum corneum, skin and receptor fluid; • μg/cm^2 of B(a)P at surface, stratum corneum, skin and receptor fluid. Results were presented with 2 decimals for the percentages and the quantities in μg/cm^2. Formula used in this report: • Standard error of the mean: • sem=Sd/√n • Bioavailability:
# (§8) Sum of the quantities found in the skin and receptor fluid.
# (§9) The inter-group comparison was performed by a paired Student's t-test with Graph Pad Prism software. The statistical analysis can be interpreted if n>5.
# [4] = ATR-FTIR of lipids extracted from forearm stratum corneum with added diglyceride (vCH2 vibration); assay type: physicochemical; conditions: 40° C., 3 μg of diglyceride for 30 μg of sample; for influence on the organisation of the intercorneocytory lipids (vCH2, FIG. 2): versus extract devoid of diglyceride
# Excerpt: In order to evaluate the change in the organisation of the lipid phases of the stratum corneum, the inventors used infrared spectroscopy (ATR-FTIR: Attenuated total reflectance—Fourier transform infrared Spectroscopy) to analyse the variation, under the effect of the temperature, of the fundamental vibration bands of the vCH2 aliphatic chains of these lipids. More particularly, the position of the absorption band, corresponding to the stretching of the CH2, is located around wave number 2848 cm^−1. By way of example, an increase in the temperature of the surface of the skin causes a displacement of this bands to the higher wave numbers.
# The study was carried out on lipids extracted from the stratum corneum of the forearm in order to have a model as close as possible to reality. We have used infrared spectroscopy (ATR-FTIR), to examine the variation, in function of temperature, of fundamental vCH2 vibration bands of aliphatic chains.
# The tests were carried out in similar experimental conditions using lipids extracts from the forearm wherein a standardized quantity of diglyceride is added (3 μg of diglyceride for 30 μg of sample).
# The test of the example 2 was reproduced with 1,2-distearoyl-rac-glycerol (1,2 diglyceride) and compared to the test carried out with glyceryl 1,3-distearate (1,3 diglyceride).
# [5] = Benzo[a]pyrene skin penetration study, Franz diffusion cell; assay type: in vitro ADME, human; conditions: human, without pre-treatment, 24 h, read-out: bioavailability (skin + receptor fluid) of benzo[a]pyrene, % of the dose applied to the skin
# Method: as §1, §2, §3, §4, §5, §6, §7, §8, §9
# [6] = 0.15 mg/cm^2 (table title), 30 min
# [7] = 0.15 mg/cm^2 (table title), 1 h 30
# [8] = 0.15 mg/cm^2 (table title), 4 h
# [9] = 3% pre-treatment in dimethicone, 32° C., 24 h
# [10] = 3% pre-treatment in dimethicone, 42° C., 24 h
# [11] = 15% pre-treatment in dimethicone, 32° C., 24 h
# [12] = 15% pre-treatment in dimethicone, 42° C., 24 h
smiles,measurement,setting,value
"CCCCCCCCCCCCCCCCCC(=O)OCC(O)COC(=O)CCCCCCCCCCCCCCCCC [glyceryl 1,3-distearate]",position of the CH2 symmetric stretching band,"[1]; 3% in dimethicone as pre-treatment, 30 min, 43° C., basal 2852.12",2848.7 cm⁻¹
same,shift of the CH2 symmetric stretching band induced by the heating of the skin,"[1]; 3% pre-treatment, 28° C. to 43° C., 0.81 without pre-treatment",0.05 cm⁻¹
same,impact of the heating on the lipid organization,"[1]; pre-treatment with 3% or 15%, T tests, p value<0.05",decrease significantly
same,"Δ νCH2, Average",[2]; [6],-2.02 cm⁻¹
same,"Δ νCH2, single subjects",[2]; [6],-1.87 cm⁻¹ and -2.16 cm⁻¹
same,"Δ νCH2, Average",[2]; [7],-2.08 cm⁻¹
same,"Δ νCH2, single subjects",[2]; [7],-1.91 cm⁻¹ and -2.25 cm⁻¹
same,"Δ νCH2, Average",[2]; [8],-1.89 cm⁻¹
same,"Δ νCH2, single subjects",[2]; [8],-1.64 cm⁻¹ and -2.15 cm⁻¹
same,"Δ νCH2, Average","[2]; 0.5 mg/cm^2, 30 min",-2.46 cm⁻¹
same,"Δ νCH2, single subjects","[2]; 0.5 mg/cm^2, 30 min",-2.56 cm⁻¹ and -3.02 cm⁻¹ and -2.71 cm⁻¹
same,"Δ νCH2, Average","[2]; 0.5 mg/cm^2, 1 h 30",-2.41 cm⁻¹
same,"Δ νCH2, single subjects","[2]; 0.5 mg/cm^2, 1 h 30",-2.65 cm⁻¹ and -2.62 cm⁻¹ and -2.6 cm⁻¹
same,"Δ νCH2, Average","[2]; 0.5 mg/cm^2, 4 h",-2.17 cm⁻¹
same,"Δ νCH2, single subjects","[2]; 0.5 mg/cm^2, 4 h",-2.6 cm⁻¹ and -2.29 cm⁻¹ and -2.18 cm⁻¹
same,persistence of the stabilising effect after application,[2]; skin heated between 30 and 45° C.,at least 4 hours
same,organisation of the intercorneocytory spaces of the skin,"[2]; skin heated between 30 and 45° C., normal conditions of use",stabilise the organisation of the intercorneocytory spaces
same,"B(a)P at Surface, percentage of the applied dose (Mean)",[3]; [9],94.66%
same,"B(a)P in Receptor fluid, percentage of the applied dose (Mean)",[3]; [9],0.05%
same,"B(a)P in Skin, percentage of the applied dose (Mean)",[3]; [9],2.09%
same,"B(a)P in Stratum corneum, percentage of the applied dose (Mean)",[3]; [9],0.82%
same,"B(a)P at Surface, percentage of the applied dose (Mean)",[3]; [10],90.39%
same,"B(a)P in Receptor fluid, percentage of the applied dose (Mean)",[3]; [10],0.17%
same,"B(a)P in Skin, percentage of the applied dose (Mean)",[3]; [10],5.18%
same,"B(a)P in Stratum corneum, percentage of the applied dose (Mean)",[3]; [10],0.90%
same,"B(a)P at Surface, percentage of the applied dose (Mean)",[3]; [11],94.99%
same,"B(a)P in Receptor fluid, percentage of the applied dose (Mean)",[3]; [11],0.04%
same,"B(a)P in Skin, percentage of the applied dose (Mean)",[3]; [11],1.87%
same,"B(a)P in Stratum corneum, percentage of the applied dose (Mean)",[3]; [11],0.77%
same,"B(a)P at Surface, percentage of the applied dose (Mean)",[3]; [12],92.68%
same,"B(a)P in Receptor fluid, percentage of the applied dose (Mean)",[3]; [12],0.15%
same,"B(a)P in Skin, percentage of the applied dose (Mean)",[3]; [12],4.40%
same,"B(a)P in Stratum corneum, percentage of the applied dose (Mean)",[3]; [12],0.75%
same,penetration of benzo[a]pyrene compared to the basal state and the vehicle,"[3]; dose of 3% or 15%, skin maintained in an atmosphere at 42° C.",significant decrease
same,"Δ νCH2: variation in the wave number of the νCH2 vibration of the aliphatic chains of the intercorneocytory lipids, with or without diglyceride",[4],-1.43 cm⁻¹
"CCCCCCCCCC(=O)OCC(O)COC(=O)CCCCCCCCC [1,3-dicaprin]","influence on the organisation of the intercorneocytory lipids (vCH2, FIG. 2)",[4],no influence
"CCCCCCCCCCCCCCCCCC(=O)OCC(CO)OC(=O)CCCCCCCCCCCCCCCCC (racemic) [1,2-distearoyl-rac-glycerol]","Δ νCH2: variation in the wave number of the νCH2 vibration of the aliphatic chains of the intercorneocytory lipids, with or without diglyceride",[4],-0.65 cm⁻¹
"c1ccc2c(c1)cc1ccc3cccc4ccc2c1c34 [B(a)P, benzo[a]pyrene, reference compound]",B(a)P concentration in the receptor fluid corresponding to the worst case,[3]; human,12.51 µg/L
same,"percentage of B(a)P found in the receptor fluid, worst case",[3]; human,0.13 % of the applied dose
same,"B(a)P recovered at the surface, % of the applied dose","[3]; human, 24 h",up to 94.5%
same,"bioavailability (skin + receptor fluid) of benzo[a]pyrene, % of the dose applied to the skin","[3]; without pre-treatment, skin temperature 32° C., 24 h",2.95%
same,bioavailability at 24 h,[5]; skin temperature 32° C.,≤ 2.95%
same,bioavailability at 24 h,[5]; skin temperature 42° C.,6.95%
"CCCCCCCCCCCC(=O)OCC(O)COC(=O)CCCCCCCCCCC [1,3-dilauroylglycerol]","influence on the organisation of the intercorneocytory lipids (vCH2, FIG. 2)",[4],no influence
